Three compounds from patent publication US11896601B2, “Composition for prevention or treatment of allergic disease including inotodiol compound as active ingredient” (CARBOEXPERT INC., priority 2018, dated 2024) can be followed below.

Experiment [1] concerns food allergy-induced mouse model. In words: Stool observation (diarrhea score) in ovalbumin food allergy mouse model. Type of experiment: in vivo. The conditions noted are these: ovalbumin food allergy BALB/C mice; oral daily; inotodiol, dexamethasone, cholesterol 20 mg/kg; extract and fractions 320 mg/kg; score 0-4 (Table 4); FIG. 1(C). As for the experimental part:
(§1) To prepare allergy mouse models, 5-week-old male BALB/C mice were used. Food allergy models were prepared using ovalbumin of chicken as an allergy-inducing material (allergen).
(§2) For immunization of the mice, 20 μg of ovalbumin was mixed with 2 mg of alum, and the mixture was intraperitoneally injected to the mice two times every two weeks. Food allergy induction was induced by performing the second immunization injection and two weeks thereafter, 50 mg of ovalbumin was orally administered thereto five times every three days to cause an allergic response. […] Here, as a positive control, a mice group was used to which dexamethasone was administered every day. 50 mg of ovalbumin alone or the chaga mushroom extract, the fraction, or the inotodiol compound was lastly administered thereto, followed by observation on symptoms caused by allergy one hour thereafter.

Experiment [2] deals with mast cells in small intestine. As to the kind of experiment: Number of mast cells in small intestine (toluidine staining), food allergy mouse model. The format is in vivo. The conditions noted are these: ovalbumin food allergy BALB/C mice; toluidine stained small intestine sections; FIG. 2(B). As for the experimental part:
as §1, §2

Experiment [3] deals with mast cell degranulation (MCPT-1). As to the kind of experiment: Passive systemic anaphylaxis: MCPT-1 in blood. Type of experiment: in vivo, mouse. The following applies: passive systemic anaphylaxis (anti-DNP-IgE, DNP-BSA i.v.); oral once a day for 3 days; inotodiol 20, ethanol extract 320, cholesterol 20, dexamethasone 10, imatinib 20 mg/kg; FIG. 5(B). The method, then:
(§3) On the third day after oral administration, 3 μg of anti-dinitrophenol (DNP)-IgE was intravenously injected, and after 24 hours, mast cell degranulation was induced by intravenous injection of 80 μg of DNP-conjugated bovine serum albumin (BSA). The rectal temperature of mice induced mast cell degranulation was measured, and the amount of MCPT-1 in the blood was analyzed.

Experiment [4] has as its system cytokine produced by Th2 CD4^+ T cells (IL-5, IL-13, IFN-γ). As to the kind of experiment: Cytokine production by mesenteric lymph node cells of treated food allergy mice (ELISA). The format is in vivo, mouse. The conditions noted are these: mLN cells of treated food allergy mice cultured three days with 100 μg/mL ovalbumin (OVA); FIG. 4(A). As for the experimental part: (§4) In order to examine the effect of an inotodiol compound or a chaga mushroom extract containing an inotodiol compound on CD4^+ T cell activity regulation, analysis of expression level of cytokine produced by Th2 CD4^+ T cell and adoptive transfer experiments using CD4^+ TCR transgenic T cells that express DO11.00 TCR, i.e., the ovalbumin-derived peptide specific T cell receptor (TCR), were performed.
For the expression of cytokine, a sample was treated in the same manner as in Experimental Example 1, and the cells were isolated from the mesenteric lymph node (mLN) of mice of each group after one day. At this time, a group treated with 10 mg/kg of dexamethasone, a group treated with 20 mg/kg of imatinib (Gleevec), which is used as a mast cell […] therapeutic agent, and a group treated with 20 mg/kg of cholesterol that is similar in structure to the inotodiol compound were added. The isolated cells were dispensed into wells of a 96-well plate at a rate of 1×10^6 cells/well. RPMI complete medium (containing 10% fetal bovine serum (FBS), penicillin, streptomycin, and glutamine) containing ovalbumin or RPMI complete medium containing 100 μg/mL of ovalbumin was inoculated and culture for three days under a condition of 37° C. and 5% CO2. […]
Background: ELISA stands for enzyme-linked immunosorbent assay.

The subject of experiment [5] is mast cell protease-1 (MCPT-1). As to the kind of experiment: Serum MCPT-1 concentration by ELISA, food allergy mouse model. Type of experiment: in vivo. The conditions noted are these: ovalbumin food allergy BALB/C mice, serum one day after last administration, FIG. 3(B). As for the experimental part: as §2
Experiment [6] relates to CD4^+ T cells expressing DO11.00 TCR. In words: Adoptive transfer of CFSE-stained DO11.10 TCR CD4+ T cells, ovalbumin-induced division (flow cytometry). The format is in vivo, mouse. The conditions noted are these: BALB/C mice; oral once a day for four days; inotodiol 20 mg/kg, ethanol extract 320 mg/kg, imatinib 10 mg/kg; five days after ovalbumin injection; FIG. 4(B). The method, then: as §4
Experiments to measure a degree of ovalbumin-derived peptide specific T cell immune response from an animal experiment were performed as follows. Cells were isolated from the lymph nodes of transgenic mice expressing DO11.10TCR. The isolated cells were fluorescence-stained with carboxyfluorescein succinimidyl ester (CFSE), and 2×10^6 cells were injected intravenously into BALB/C mice. Cells were injected intraperitoneally with ovalbumin (50 μg) and alum to induce division of CD4^+ T cells expressing DOII.00 TCR. Oral administration of 20 mg/kg of the inotodiol compound, 320 mg/kg of the chaga mushroom ethanol extract, 10 mg/kg of dexamethasone, 10 mg/kg of imatinib, or 20 mg/kg of the cholesterol was performed once a day for four days starting from one day after ovalbumin injection. After five days of ovalbumin injection, the cells were isolated from BALB/C lymph nodes, stained with anti-CD4 antibody and anti-DO11.10 antibody, and measured CFSF fluorescence intensity of the CD4^+ T cell expressing DOII.00 TCR using flow cytometry to determine the cell division degree. Then, the number of cells was measured. Here, the CFSF fluorescence intensity decreased as the cell division increases.

Experiment [7] has as its system eosinophils in small intestine. As to the kind of experiment: Eosinophil infiltration in small intestine (H&E staining), food allergy mouse model. The following applies: ovalbumin food allergy BALB/C mice; H&E stained small intestine sections; FIG. 2(A). The format is in vivo. The method, then: as §1, §2
The mice of each experimental group in Experimental Example 1 were anesthetized and cut the abdomen. Then, the small intestine was removed, fixed with formalin, treated with paraffin, permeated with paraffin, and microsectioned using microtome, thereby obtaining tissue sections. The obtained small intestine sections were stained with hematoxylin and eosin (H&E) to observe eosinophil cells.

Experiment [8] has as its system egg white protein-specific IgE. As to the kind of experiment: Serum IgE concentration by ELISA, food allergy mouse model. Type of experiment: in vivo. The conditions noted are these: ovalbumin food allergy BALB/C mice, serum one day after last administration, FIG. 3(A). As for the experimental part: as §2
A further experiment relates to mast cell degranulation. As to the kind of experiment: Passive systemic anaphylaxis: rectal temperature. Type of experiment: in vivo, mouse. The following applies: passive systemic anaphylaxis (anti-DNP-IgE, DNP-BSA i.v.); oral once a day for 3 days; inotodiol 20 mg/kg, ethanol extract 320 mg/kg; FIG. 5(A). As for the experimental part: as §3
In experiment [9] the test system is food allergy-induced mouse model. As to the kind of experiment: Anaphylaxis symptom score in ovalbumin food allergy mouse model. Type of experiment: in vivo. The conditions noted are these: ovalbumin food allergy BALB/C mice; oral daily; inotodiol, dexamethasone, cholesterol 20 mg/kg; extract and fractions 320 mg/kg; score 0-4 (Table 3); FIG. 1(B). As for the experimental part:
as §1, §2

In the case of `CC(C)=CC[C@@H](O)[C@@H](C)[C@H]1CC[C@@]2(C)C3=C(CC[C@]12C)[C@@]1(C)CC[C@H](O)C(C)(C)[C@@H]1CC3` [Inotodiol, inotodiol], the “diarrhea symptom score (stool symptom score)” value in experiment [1] was “lower than that of the food allergy-induced group”. In addition, the “number of mast cells in the small intestine” value in experiment [2] was “decreased number of mast cells”. In addition, the “concentration of MCPT-1 in the blood after induced mast cell degranulation” value (“concentration of MCPT-1 in the blood” for short) in experiment [3] was “level of increase in concentration of MCPT-1 was significantly decreased”. Also, the “amount of IL-5, IL-13, and IFN-γ (cytokine expression by Th2 CD4+ T cells)” value in experiment [4] was “not substantially different from the expression amount of IL-5, IL-13, and IFN-γ”. Besides, in [5], the “concentration of MCPT-1 in serum” value was “decreased significantly”. The “number of CD4+ T cells expressing DO11.00 TCR” value in [6] is “significantly increased number of CD4^+T cells”. Moreover, the “infiltration of eosinophils in the small intestine (number of stained eosinophil cells)” value in [7] was “decreased infiltration of eosinophils”. Besides, the “concentration of egg white protein-specific IgE in serum” value in experiment [8] is given as “no substantial change in the concentration of IgE”. The “rectal temperature after induced mast cell degranulation” value in the experiment with mast cell degranulation was “did not decrease the rectal temperature”. Besides, the anaphylaxis score entry in experiment [9] is “lower anaphylaxis score than the food allergy-induced group”.
As to `Cc1ccc(NC(=O)c2ccc(CN3CCN(C)CC3)cc2)cc1Nc1nccc(-c2cccnc2)n1` [Imat., imatinib], in experiment [3], the “concentration of MCPT-1 in the blood” value was “level of increase in concentration of MCPT-1 was significantly decreased”. In experiment [6], the “CFSE fluorescence intensity of CD4+ T cell expressing DO11.00 TCR (cell division degree)” value is “no difference in the CFSE fluorescence intensity and the number of cells, as compared with the unimmune group”; the “number of CD4+ T cells expressing DO11.00 TCR” value is “no difference in the CFSE fluorescence intensity and the number of cells, as compared with the unimmune group”.
In the case of `CC(C)CCC[C@@H](C)[C@H]1CC[C@H]2[C@@H]3CC=C4C[C@@H](O)CC[C@]4(C)[C@H]3CC[C@]12C` [cholesterol, reference compound], the “number of mast cells in the small intestine” value in experiment [2] was “little decrease in the number of eosinophils and mast cells”. In addition, in experiment [3], the “concentration of MCPT-1 in the blood” value is “MCPT-1 did not decrease”. Besides, the “infiltration of eosinophils in the small intestine (number of stained eosinophil cells)” value in [7] is “little decrease in the number of eosinophils and mast cells”.
